Measured values reported in ChEMBL document CHEMBL5357008, “Novel Pyrazolopyridine Inhibitors of Monoacylglycerol Lipase for the Treatment of Neurodegenerative Diseases and Neuroinflammation” (ACS Med Chem Lett, 2024).

target: T1, Monoglyceride lipase (Homo sapiens, UniProt Q99685); assay: Inhibition of MAGL (unknown origin) using 2-arachidonoylglycerol as substrate preincubated with compound for 15 mins followed by substrate addition and measured after 30 mins by mass spectrometer analysis
T1 sequence (Q99685 whole entry): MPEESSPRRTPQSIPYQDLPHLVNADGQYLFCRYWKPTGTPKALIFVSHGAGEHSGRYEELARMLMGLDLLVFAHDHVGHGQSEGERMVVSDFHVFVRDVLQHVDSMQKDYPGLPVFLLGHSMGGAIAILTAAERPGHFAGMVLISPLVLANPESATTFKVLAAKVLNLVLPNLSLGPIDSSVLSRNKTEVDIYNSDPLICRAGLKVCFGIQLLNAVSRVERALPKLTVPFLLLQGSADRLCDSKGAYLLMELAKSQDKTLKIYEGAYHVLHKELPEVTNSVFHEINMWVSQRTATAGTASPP

| IC50 | SMILES |
| --- | --- |
| 2 nM | C[C@H]1c2nn(C)c(-c3cc(F)cc(F)c3)c2CCN1C(=O)c1cc(F)cc(OCC2CNC(=O)O2)c1Cl (stereo partly drawn) |
| 27 nM | COc1cccc(C(=O)N2CCc3c(nn(C)c3-c3cc(Cl)cc(CS(N)(=O)=O)c3)[C@@H]2C)c1Cl |
| 5 nM | CC1c2nn(C)c(-c3cc(F)cc(F)c3)c2CCN1C(=O)c1cc(F)cc(OCC2CNC(=O)C2)c1Cl (stereo not drawn) |
